Experimental data taken from US5728885A, “Method of preparing the enantiomers of O-dimethyltramadol” (priority 1996, dated 1998).
Where a name gives a salt, the structure may show the parent alone. Read-outs that look alike come from different tables or passages of the source.

Experiments:
[1] = system: phenylquinone-induced writhing; test: phenylquinone-induced writhing test on mice (analgesia); assay type: in vivo, male NMRI mice; details: Mus musculus, read-out: ED50 in the writhing test
Experimental: Testing for analgesia using the writhing test on mice
Testing for analgesic effectiveness was performed using the phenylquinone-induced writhing test on mice (modified according to I. C. Hendershot, J. Forsaith, J. Pharmacol. Exp. Ther. 125, 237-240 (1959)). […]. For each dose of substance, groups of 10 animals received, 10 minutes after the intravenous administration of the compounds to be used according to the invention, 0.3 ml per mouse of an 0.02% aqueous solution of phenylquinone (phenylbenzoquinone: manufactured by Sigma, Deisenhofen; solution prepared with the addition of 5 % ethanol and kept on a water bath at 45° C.) administered intraperitoneally. The animals were placed individually in observation cages, and the number of pain-induced stretching movements (so-called writhing reactions=straightening of the body with stretching of the rear extremities) 5-20 minutes after the administration of phenylquinone was counted by means of a push-button counter. The ED50 values were calculated with a 95% confidence limit by means of regression analysis (evaluation program supplied by Martens EDV Service, Eckental) from the dose-dependent decrease in the writhing reactions, by comparison with control groups which were tested in parallel and which were treated with phenylquinone only.

[2] = system: thermal radiation pain (tail flick); test: thermal radiation (tail flick) test on rats (analgesia); assay type: in vivo, female Sprague Dawley rats; details: Rattus norvegicus, 20 min, read-out: ED50 in the tail flick test
Text: Testing for analgesia using the tail flick test on rats
The analgesic effectiveness of the compounds to be used according to the invention was investigated in the thermal radiation (tail flick) test on rats using the method of D'Amour and Smith (J. Pharm. Exp. Ther. 72, 74-79 (1941). Female Sprague Dawley rats with a weight of 120-160 g were used for this purpose. The animals were placed individually in test cages and the bases of their tails were exposed to the focused thermal radiation from an electric lamp (Rhema Analgesiemeter for rats). The lamp intensity was adjusted so that the time from switching on the lamp until the sudden twitching away of the tail (latency of pain) was 3-6 seconds for untreated animals. Before the administration of the compounds to be used according to the invention, the animals were tested twice within five minutes and the average value of these measurements was calculated as the pre-test average. The pain measurement was made 20, 40 and 60 minutes after intravenous administration. […]. In order to determine the dosage-dependency, the compounds were administered in doses increasing logarithmically by a factor of 3-5, which included the threshold and the maximum effective dose each time. The ED50 values were determined from the number of analgesic animals by the method of Litchfield and Wilcoxon (J. Pharm. Exp. Ther. 96, 99-113, (1949)). The ED50 was calculated at the effective maximum 20 minutes after intravenous administration of the substance.

[3] = analgesic effect (statement in words); assay type: in vivo; details: on its own or in combination with tramadol
[4] = intravenous, phenylquinone i.p. 10 minutes after compound, writhing counted 5-20 minutes after phenylquinone, mice
[5] = intravenous, 20 minutes after administration, >150 % of pre-test average latency, rats

SMILES | ED50 ([1]; iv) | ED50 ([2]; iv) | analgesic effect [3] | ED50 [1, 4] | ED50 [2, 5]
COc1cccc([C@@]2(O)CCCC[C@@H]2CN(C)C)c1.Cl (racemic) [racemic tramadol hydrochloride, (1RS, 2RS)-2-dimethylaminomethyl-1-(3-methoxy-phenyl)-cyclohexanol hydrochloride, reference compound] | 3.59 mg/kg | 6.47 mg/kg |  |  | 
CN(C)C[C@H]1CCCC[C@]1(O)c1cccc(O)c1 (relative stereo) [O-demethyltramadol] |  |  | high analgesic effect |  | 
CN(C)C[C@H]1CCCC[C@]1(O)c1cccc(O)c1 [(+)-enantiomer of O-demethyltramadol hydrochloride, (+)-(1R, 2R)-3-(2-dimethyl-aminomethyl-1-hydroxy-cyclohexyl)-phenol hydrochloride] |  |  |  | 0.489 mg/kg | 1.01 mg/kg
CN(C)C[C@@H]1CCCC[C@@]1(O)c1cccc(O)c1 [(-)-enantiomer of O-demethyltramadol hydrochloride, (-)-(1S, 25)-3-(2-dimethylaminomethyl-1-hydroxy-cyclohexyl)-phenol hydrochloride] |  |  |  | 6.6 mg/kg | > 10 mg/kg
